Laboratory results from PubChem BioAssay (NCI).
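Cells were grown in 96-well plates and exposed to each compound for 48 hours at five concentrations; endpoints were interpolated linearly between bracketing concentrations, or set to the highest concentration if not reached. Definition used: TGI = concentration required for complete inhibition of growth.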

Tests used:
Assay in all cases: DTP human tumour cell line panel, 48 h
SNB-19 CNS = test system: SNB-19 CNS
SNB-78 CNS = test system: SNB-78 CNS
M19-MEL melanoma = test system: M19-MEL melanoma
MOLT-4 leukemia = test system: MOLT-4 leukemia
TK-10 renal = test system: TK-10 renal
SK-MEL-5 melanoma = test system: SK-MEL-5 melanoma
A549 NSCLC = test system: A549 NSCLC
SK-MEL-28 melanoma = test system: SK-MEL-28 melanoma
M14 melanoma = test system: M14 melanoma
DMS 114 small cell lung = test system: DMS 114 small cell lung
SK-MEL-2 melanoma = test system: SK-MEL-2 melanoma
NCI-H522 lung = test system: NCI-H522 lung
ACHN renal = test system: ACHN renal
UACC-257 melanoma = test system: UACC-257 melanoma
RXF 393 renal = test system: RXF 393 renal
LXFL 529 NSCLC = test system: LXFL 529 NSCLC
SN12C renal = test system: SN12C renal
SF-539 CNS = test system: SF-539 CNS
KM20L2 colon = test system: KM20L2 colon
IGROV1 ovarian = test system: IGROV1 ovarian
CCRF-CEM leukemia = test system: CCRF-CEM leukemia
UO-31 renal = test system: UO-31 renal
HL-60(TB) leukemia = test system: HL-60(TB) leukemia
SF-295 CNS = test system: SF-295 CNS
MALME-3M melanoma = test system: MALME-3M melanoma
786-0 renal = test system: 786-0 renal
K-562 leukemia = test system: K-562 leukemia
NCI-H460 lung = test system: NCI-H460 lung
OVCAR-8 ovarian = test system: OVCAR-8 ovarian
SR leukemia = test system: SR leukemia
RXF-631 renal = test system: RXF-631 renal
HCC-2998 colon = test system: HCC-2998 colon
HOP-18 NSCLC = test system: HOP-18 NSCLC
SW-620 colon = test system: SW-620 colon
HCT-15 colon = test system: HCT-15 colon
NCI-H23 lung = test system: NCI-H23 lung
OVCAR-3 ovarian = test system: OVCAR-3 ovarian
LOX IMVI melanoma = test system: LOX IMVI melanoma
HOP-92 NSCLC = test system: HOP-92 NSCLC
COLO 205 colon = test system: COLO 205 colon
XF 498 CNS = test system: XF 498 CNS
SF-268 CNS = test system: SF-268 CNS
RPMI-8226 leukemia = test system: RPMI-8226 leukemia
U251 CNS = test system: U251 CNS
DLD-1 colon = test system: DLD-1 colon
SNB-75 CNS = test system: SNB-75 CNS
EKVX NSCLC = test system: EKVX NSCLC
DMS 273 small cell lung = test system: DMS 273 small cell lung
KM12 colon = test system: KM12 colon
HT29 colon = test system: HT29 colon
A498 renal = test system: A498 renal
HCT-116 colon = test system: HCT-116 colon
UACC-62 melanoma = test system: UACC-62 melanoma
SK-OV-3 ovarian = test system: SK-OV-3 ovarian
OVCAR-5 ovarian = test system: OVCAR-5 ovarian
CAKI-1 renal = test system: CAKI-1 renal
NCI-H226 lung = test system: NCI-H226 lung
HOP-62 NSCLC = test system: HOP-62 NSCLC
OVCAR-4 ovarian = test system: OVCAR-4 ovarian

Measured: TGI

COc1ccc(NCC#N)cc1
75.8 µM: 786-0 renal
not listed: CAKI-1 renal | NCI-H226 lung | HOP-62 NSCLC | OVCAR-4 ovarian
> 100 µM: all other assays above

C[C@]12CCc3nonc3C1CC[C@@H]1C2CC[C@]2(C)C(=O)/C(=N\O)CC12 (some centres not stated)
3.69 µM: HL-60(TB) leukemia
32 µM: NCI-H522 lung
> 100 µM: all other assays above

O=C(O)C1(C(=O)O)CC1
not listed: SR leukemia | LOX IMVI melanoma | HOP-92 NSCLC | HT29 colon | OVCAR-5 ovarian | NCI-H226 lung
> 100 µM: all other assays above
